Measured values reported in PubChem BioAssay (NCI).
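96-well plates; 48 h exposure; 5 concentrations. Endpoints by linear interpolation between flanking doses. Not reached: highest tested concentration assigned. At the TGI there is no net growth.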

Columns and labels:
Assay in all cases: inhibition of tumour cell growth, NCI panel, 48 h
[1] = tested on: HOP-62 NSCLC
[2] = tested on: U251 CNS
[3] = tested on: SF-268 CNS
[4] = tested on: BT-549 breast
[5] = tested on: MDA-MB-231 breast
[6] = tested on: OVCAR-3 ovarian
[7] = tested on: OVCAR-4 ovarian
[8] = tested on: MCF7 breast
[9] = tested on: HCT-116 colon
[10] = tested on: UO-31 renal
[11] = tested on: SNB-75 CNS
[12] = tested on: SW-620 colon
[13] = tested on: TK-10 renal
[14] = tested on: HCT-15 colon
[15] = tested on: KM12 colon
[16] = tested on: HCC-2998 colon
[17] = tested on: A498 renal
[18] = tested on: UACC-62 melanoma
[19] = tested on: ACHN renal
[20] = tested on: OVCAR-5 ovarian
[21] = tested on: SK-OV-3 ovarian
[22] = tested on: A549 NSCLC
[23] = tested on: T-47D breast
[24] = tested on: HS 578T breast
[25] = tested on: NCI/ADR-RES ovarian
[26] = tested on: PC-3 prostate
[27] = tested on: NCI-H460 lung
[28] = tested on: RPMI-8226 leukemia
[29] = tested on: EKVX NSCLC
[30] = tested on: HL-60(TB) leukemia
[31] = tested on: 786-0 renal
[32] = tested on: NCI-H226 lung
[33] = tested on: DU-145 prostate
[34] = tested on: OVCAR-8 ovarian
[35] = tested on: SN12C renal
[36] = tested on: SR leukemia
[37] = tested on: M14 melanoma
[38] = tested on: COLO 205 colon
[39] = tested on: SF-295 CNS
[40] = tested on: IGROV1 ovarian
[41] = tested on: RXF 393 renal
[42] = tested on: SK-MEL-28 melanoma
[43] = tested on: SK-MEL-5 melanoma
[44] = tested on: MDA-MB-435
[45] = tested on: MOLT-4 leukemia
[46] = tested on: K-562 leukemia
[47] = tested on: SF-539 CNS
[48] = tested on: HOP-92 NSCLC
[49] = tested on: NCI-H522 lung
[50] = tested on: LOX IMVI melanoma
[51] = tested on: CCRF-CEM leukemia
[52] = tested on: UACC-257 melanoma
[53] = tested on: MDA-N
[54] = tested on: SNB-19 CNS
[55] = tested on: MALME-3M melanoma
[56] = tested on: CAKI-1 renal
[57] = tested on: HT29 colon
[58] = tested on: SK-MEL-2 melanoma
[59] = tested on: NCI-H23 lung

Measured: TGI

CC1(C)OCC(C2OC3OC(C)(C)OC3C2N)O1 (stereo not drawn)
> 100 µM: all assays above

CCCCCCCCCCc1c2nc(c(CCCCCCCCCC)c3ccc([nH]3)c(CCCCCCCCCC)c3ccc([nH]3)c(CCCCCCCCCC)c3nc1C=C3)C=C2
> 100 µM: all assays above
